Earlier results on one substance are cited in US20200093783A1, “Preparation and Anti-HepG2 Application for Urushiol-Based pH Response Micelle Encapsulating Paclitaxel” (Nanjing Zhongsen Biological Technology Co., Ltd., priority 2019, published 2020).

The data set concerns most of tumor cells. The conditions noted are these: background statement.

As to urushiol, the “IC50 (50% inhibiting concentration)” value was 4 µg/mL.
